Measured values as given in patent US20090176817A1, “Method of Treatment of Diarrhea-Predominant Irritable Bowel Syndrome in a Subject” (priority 2005, published 2009).

Assays:
[1] = tested on: healthy, elderly subjects; assay: Study K.241.5013: gastric emptying time, elderly, 4 mg TID; format: in vivo, human; details: 4 mg TID oral 14 days, mean (SD)
Source text: The effect of cilansetron on gastric emptying time and colonic transit time has been studied in 1 clinical study in healthy young subjects and 2 studies in elderly subjects. For measurement of gastric emptying time, breath samples for the determination of the ^12C/^13C ratio were taken on the last day of each treatment period immediately after ingestion of a ^13C labeled meal. The patients' breath was collected in separate 15-minute intervals, for four hours in total. ^13CO2 measurements were performed with an isotope ratio mass spectrometer. The half-life (TK) and lag-time (Tlag), which describe the duration of gastric emptying, were used as the primary parameters to evaluate gastric emptying time. In all 3 studies, colonic transit time was measured by administration of radio-opaque markers for the last six days of each treatment period, followed by a single abdominal X-ray image at 24 hours after ingestion of the last set of markers. The numbers of markers within the colon were used to calculate segmental (right colon, left colon, and rectosigmoid) and total colonic transit time.
Studies K.241.5013 and K.241.5014 were randomized, double-blind, placebo-controlled, 2-way crossover studies in 8 healthy male and female elderly subjects, each (ITT population, aged 64-83 years in K.241.5013 and 66-84 years in K.241.5014). […]

clinical = details: human, in vivo; for AUC: AUC (0-τ)
Procedure: Subjects were treated with a single oral dose of cilansetron 8 mg (tablet) on Day 1, followed by 8 mg TID for 5 days (Days 2-6) and a single 8 mg dose on the morning of Day 7. Young subjects ranged in age from 19-45 years, and elderly from 66-79 years. Serial blood samples were collected up to 24 hours postdose on Days 1 and 7, and cilansetron pharmacokinetic parameters were calculated. Doses on pharmacokinetic sampling days were administered under fasted conditions.
Young subjects ranged in age from 19-45 years, and elderly from 66-79 years. Serial blood samples were collected up to 24 hours postdose on Days 1 and 7, and cilansetron pharmacokinetic parameters were evaluated. Doses on pharmacokinetic sampling days were administered under fasted conditions.

[2] = tested on: non-constipated IBS subjects; assay: Study S241.2.112: Phase II dose-ranging efficacy; format: in vivo, human
Procedure: Study S241.2.112 was a Phase II, double-blind, placebo-controlled, randomized, multicenter parallel-group, dose-ranging study to investigate the efficacy and safety of cilansetron in non-constipated subjects with irritable bowel syndrome. The study was conducted in 51 study centers in the U.S. A total of at least 88 subjects were planned per treatment group evaluable for efficacy, in total 440 to complete the study; 975 subjects were screened; 490 were randomized and 481 analyzed for safety.
Diagnosis and main criteria for inclusion were IBS subjects satisfying the Rome criteria (1992) and minimum abdominal pain/discomfort, stool frequency and consistency determined during the run-in period. Subjects were treated with cilansetron 1 mg, 2 mg, 8 mg, and 16 mg tablets given orally TID or matching placebo tablets given orally TID for 12 weeks.
Efficacy was evaluated by weekly global questions concerning adequate relief of IBS symptoms (abdominal pain/discomfort, abnormal bowel habits). A responder is a subject who responded “Yes” at least 50% of the time after randomization, with a minimum treatment duration of four weeks.

healthy subjects = assay: Study K.241.5007: rectal visceral perception; format: in vivo, human; details: mean; for Pressure first producing abdominal pain, Differences from Placebo / Pressure first producing feeling of abdominal sensation, Differences from Placebo / Pressure first producing feeling of need to defecate, Differences from Placebo / Volume first producing abdominal pain, Differences from Placebo / Volume first producing feeling of abdominal sensation, Differences from Placebo / Volume first producing feeling of need to defecate, Differences from Placebo: not significant; for Pressure first producing abdominal pain / Pressure first producing feeling of abdominal sensation / Pressure first producing feeling of need to defecate / Volume first producing abdominal pain / Volume first producing feeling of abdominal sensation / Volume first producing feeling of need to defecate: rectal distension, absolute value
Procedure: The effect of cilansetron on rectal visceral perception was evaluated in a randomized, doubleblind, placebo-controlled, 4-way crossover study in 12 male healthy subjects (ITT population), aged 18-26 years. Subjects received single IV doses of placebo or cilansetron 4 mg, 8 mg, or 16 mg as 30-minute infusions during each of the periods, with a 14-day washout between periods. Rectal distension tests were done during each treatment, immediately following the completion of each infusion. An electronic barostat was used to produce isobarometric distensions (successive 4 mmHg increases every 5 minutes, up to a sensation of abdominal pain or a maximum of 44 mmHg). The primary efficacy parameter was the distension pressure required to induce a sensation of abdominal pain. Secondary parameters were the distension pressure at the first feeling of abdominal/rectal sensation and the first feeling of need to defecate, and the response rate (defined as the number of subjects who experienced no abdominal pain at the maximum pressure of 44 mmHg). The pain threshold for each of the three cilansetron doses was compared to placebo using a one-sided Dunnett t-test.

Cc1nccn1C[C@H]1CCc2c(c3cccc4c3n2CCC4)C1=O [Cilansetron, (R)-(−)-4,5,6,8,9,10-hexahydro-10-[(2-methyl-1H-imidazol-1-yl)methyl]-11H-pyrido-[3,2,1-jk]-carbazol-11-one]
gastric emptying time Tlag [1]: 122 (24) min | gastric emptying time T½ [1]: 183 (32) min | AUC(0-inf) (clinical; female, 8 mg): 289 ng·h/mL | AUC (clinical; female, 8 mg): 247 ng·h/mL | AUC(0-inf) (clinical; female): 178 ng·h/mL | AUC (clinical; female): 263 ng·h/mL | Cmax (clinical; female): 95.1 ng/mL | Tmax (clinical; female): 0.88 h | AUC(0-inf) (clinical; male): 228 ng·h/mL | AUC (clinical; male): 196 ng·h/mL | Cmax (clinical; male): 58.8 ng/mL | Tmax (clinical; male): 1.31 h | Vd/F (clinical; male, Vz/F): 243 L | Responder rate better than placebo ([2]; 1 mg TID): 22% | Responder rate better than placebo ([2]; 1 mg, females): 26% | Responder rate higher than placebo ([2]; 2 mg TID): 13% | Responder rate higher than placebo ([2]; 8 mg TID): 15% | Responder rate better than placebo ([2]; 16 mg TID): 22% | Pressure first producing abdominal pain, Differences from Placebo (healthy subjects; 4 mg single IV dose): 0.67 mmHg | Pressure first producing feeling of abdominal sensation, Differences from Placebo (healthy subjects; 4 mg single IV dose): −1.00 mmHg | Pressure first producing feeling of need to defecate, Differences from Placebo (healthy subjects; 4 mg single IV dose): −0.67 mmHg | Volume first producing abdominal pain, Differences from Placebo (healthy subjects; 4 mg single IV dose): 12.7 mL | Volume first producing feeling of abdominal sensation, Differences from Placebo (healthy subjects; 4 mg single IV dose): -20.0 mL | Volume first producing feeling of need to defecate, Differences from Placebo (healthy subjects; 4 mg single IV dose): -8.75 mL | Pressure first producing abdominal pain (healthy subjects; 4 mg single IV dose): 31.0 mmHg | Pressure first producing feeling of abdominal sensation (healthy subjects; 4 mg single IV dose): 12.7 mmHg | Pressure first producing feeling of need to defecate (healthy subjects; 4 mg single IV dose): 20.3 mmHg | Volume first producing abdominal pain (healthy subjects; 4 mg single IV dose): 310 mL | Volume first producing feeling of abdominal sensation (healthy subjects; 4 mg single IV dose): 132 mL | Volume first producing feeling of need to defecate (healthy subjects; 4 mg single IV dose): 233 mL | Pressure first producing abdominal pain, Differences from Placebo (healthy subjects; 8 mg single IV dose): 2.00 mmHg | Pressure first producing feeling of abdominal sensation, Differences from Placebo (healthy subjects; 8 mg single IV dose): −1.67 mmHg | Pressure first producing feeling of need to defecate, Differences from Placebo (healthy subjects; 8 mg single IV dose): −0.67 mmHg | Volume first producing abdominal pain, Differences from Placebo (healthy subjects; 8 mg single IV dose): -0.83 mL | Volume first producing feeling of abdominal sensation, Differences from Placebo (healthy subjects; 8 mg single IV dose): -19.2 mL | Volume first producing feeling of need to defecate, Differences from Placebo (healthy subjects; 8 mg single IV dose): -10.0 mL | Pressure first producing abdominal pain (healthy subjects; 8 mg single IV dose): 32.3 mmHg | Pressure first producing feeling of abdominal sensation (healthy subjects; 8 mg single IV dose): 12.0 mmHg | Pressure first producing feeling of need to defecate (healthy subjects; 8 mg single IV dose): 20.3 mmHg | Volume first producing abdominal pain (healthy subjects; 8 mg single IV dose): 297 mL | Volume first producing feeling of abdominal sensation (healthy subjects; 8 mg single IV dose): 133 mL | Volume first producing feeling of need to defecate (healthy subjects; 8 mg single IV dose): 232 mL | Pressure first producing abdominal pain, Differences from Placebo (healthy subjects; 16 mg single IV dose): 1.33 mmHg | Pressure first producing feeling of abdominal sensation, Differences from Placebo (healthy subjects; 16 mg single IV dose): −1.00 mmHg | Pressure first producing feeling of need to defecate, Differences from Placebo (healthy subjects; 16 mg single IV dose): −1.00 mmHg | Volume first producing abdominal pain, Differences from Placebo (healthy subjects; 16 mg single IV dose): 15.8 mL | Volume first producing feeling of abdominal sensation, Differences from Placebo (healthy subjects; 16 mg single IV dose): -14.2 mL | Volume first producing feeling of need to defecate, Differences from Placebo (healthy subjects; 16 mg single IV dose): -3.75 mL | Pressure first producing abdominal pain (healthy subjects; 16 mg single IV dose): 31.7 mmHg | Pressure first producing feeling of abdominal sensation (healthy subjects; 16 mg single IV dose): 12.7 mmHg | Pressure first producing feeling of need to defecate (healthy subjects; 16 mg single IV dose): 20.0 mmHg | Volume first producing abdominal pain (healthy subjects; 16 mg single IV dose): 313 mL | Volume first producing feeling of abdominal sensation (healthy subjects; 16 mg single IV dose): 138 mL | Volume first producing feeling of need to defecate (healthy subjects; 16 mg single IV dose): 238 mL
